Tested on: lymphocytic leukemia P388
Assay: Lymphocytic Leukemia P388 Test
Type: in vivo, BDF1 mice
Details: for Median Survival: BDF1 mice; for T/C × 100 (%): ratio of survival time treated/control
In short: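 BDF1 mice (5–6 per group) were inoculated i.p. with 10^6 P388 cells, then dosed i.p. on days 1, 5 and 9 at various doses. Survival was followed for 60 days, and median survival time and the treated/control (T/C) survival ratio were calculated.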

[1] = dose 0.75 mg/kg intraperitoneally on days 1, 5 and 9
[2] = dose 1.5 mg/kg intraperitoneally on days 1, 5 and 9
[3] = dose 3 mg/kg intraperitoneally on days 1, 5 and 9

| Compound | Median Survival [1] | T/C × 100 (%) [1] | Median Survival [2] | T/C × 100 (%) [2] | Median Survival [3] | T/C × 100 (%) [3] |
| --- | --- | --- | --- | --- | --- | --- |
| Br.Br.C[C@H](NC(=O)[C@H](CO)NC(=O)[C@H](CCCNC(=N)N)NC(=O)OCc1ccccc1)C(=O)NCCNc1ccc(NCCNC(=O)[C@H](C)NC(=O)[C@H](CO)NC(=O)[C@H](CCCNC(=N)N)NC(=O)OCc2ccccc2)c2c1C(=O)c1c(O)ccc(O)c1C2=O [Example 93, N,N'-[(9,10-Dihydro-5,8-dihydroxy-9,10-dioxo-1,4-anthracencdiyl)bis(imino-2,1-ethanediyl)][L-alanyl-L-seryl-carbobenzyloxy-L-argininamide]dihydrobromide] | 22.0 days | 200% | 22.5 days | 205% | 24.5 days | 223% |
| Br.Br.Br.Br.C[C@H](NC(=O)[C@H](CO)NC(=O)[C@@H](N)CCCNC(=N)N)C(=O)NCCNc1ccc(NCCNC(=O)[C@H](C)NC(=O)[C@H](CO)NC(=O)[C@@H](N)CCCNC(=N)N)c2c1C(=O)c1c(O)ccc(O)c1C2=O [Example 94, N,N'-[(9,10-Dihydro-5,8-dihydroxy-9,10-dioxo-1,4-anthracenediyl)bis(imino-2,1-ethanediyl)]bis[L-arginyl-L-seryl-L-alaninamide], tetrahydrobromide] | 21.5 days | 195% | 21.0 days | 191% | 34.5 days | 314% |
| N,N'-[(9,10-Dihydro-5,8-dihydroxy-9,10-dioxo-1,4-anthracenediyl)bis(imino-2,1-ethanediyl)]bis[L-alanyl-L-alanine]bis(trifluoroacetate) [Example 72] | 20.0 days | 190% | 20.0 days | 190% | 23.0 days | 219% |
| N,N'-[(9,10-Dihydro-5,8-dihydroxy-9,10-oxo-1,4-anthracenediyl)bis(imino-2,1-ethanediyl) ]bis[L-arginine(phenylmethyl)]ester, dihydrobromide [Example 85] | 21.5 days | 179% | 21.0 days | 175% | 22.5 days | 188% |
| [S-(R*,R*)][(9,10-Dihydro-5,8-dihydroxy-9,10-dioxo-1,4-anthracenediyl)bis[1-[3-[[imino(nitroamino)methyl]amino]propyl]-2-oxo-2,1-ethanediyl]]bis-carbamic acid, bis(phenylmethyl)ester [Example 91] | 15.5 days | 141% | 16.5 days | 150% | 18.0 days | 164% |
| [S-(R*,R*)][(9,10-Dihydro-5,8-dihydroxy-9,10-dioxo-1,4-anthracenediyl)bis[imino-2,1-ethanediylimino[1-[3-[[imino[[(phenylmethoxy)carbonyl]amino]methyl][(phenylmethoxy)carbonyl]propyl]-2-oxo-2,1-ethanediyl]]]carbamic acid, bis(phenylmethyl)ester [Example 95] | 14.0 days | 127% | 16.0 days | 145% | 16.0 days | 145% |

Source: patent US4732970A, “Antitumor amino acid and peptide derivatives of 1,4-bis(aminoalkyl and hydroxy-aminoalkyl)amino)-5,8-dihydroxyanthraquinones” (priority 1986, dated 1988)
